pIC50: −log10 of the molar value. Where a name gives a salt, the structure may show the parent alone.
Target: T1, HMG-CoA reductase (Rattus norvegicus, UniProt P51639)
T1 construct: were preincubated with liver microsomes at 37° C. for 30 minutes; from tissue
T1 sequence (P51639 1-887): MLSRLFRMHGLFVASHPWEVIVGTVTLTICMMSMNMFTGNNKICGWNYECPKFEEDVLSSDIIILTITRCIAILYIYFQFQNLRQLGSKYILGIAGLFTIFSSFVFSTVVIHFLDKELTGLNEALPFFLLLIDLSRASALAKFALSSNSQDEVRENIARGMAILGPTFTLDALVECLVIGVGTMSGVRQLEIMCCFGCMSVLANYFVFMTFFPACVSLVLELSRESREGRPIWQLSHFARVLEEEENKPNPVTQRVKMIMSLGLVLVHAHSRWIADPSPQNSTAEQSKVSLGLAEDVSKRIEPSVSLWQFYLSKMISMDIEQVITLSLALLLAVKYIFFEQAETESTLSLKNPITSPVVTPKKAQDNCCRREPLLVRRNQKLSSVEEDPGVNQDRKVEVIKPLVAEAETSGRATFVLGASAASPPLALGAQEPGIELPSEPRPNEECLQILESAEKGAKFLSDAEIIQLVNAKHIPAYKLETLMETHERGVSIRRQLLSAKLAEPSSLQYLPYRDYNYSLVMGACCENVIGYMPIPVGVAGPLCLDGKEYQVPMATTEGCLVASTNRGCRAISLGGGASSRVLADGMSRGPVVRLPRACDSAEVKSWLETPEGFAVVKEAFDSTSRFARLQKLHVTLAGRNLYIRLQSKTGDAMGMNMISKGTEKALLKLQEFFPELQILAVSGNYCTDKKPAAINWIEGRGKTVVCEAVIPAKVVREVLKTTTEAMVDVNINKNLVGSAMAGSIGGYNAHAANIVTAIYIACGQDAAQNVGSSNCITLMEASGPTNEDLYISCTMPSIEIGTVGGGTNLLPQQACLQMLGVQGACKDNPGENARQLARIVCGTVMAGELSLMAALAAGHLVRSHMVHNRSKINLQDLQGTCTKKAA
Experiment: in-vitro HMG-CoA reductase enzyme assay (liver microsomes, [14C] HMG-CoA)
Type: biochemical
Conditions: 2.5 μM [14C] HMG-CoA as substrate, 37° C. for 15 minutes; compounds preincubated with liver microsomes at 37° C. for 30 minutes
Method: HMG-CoA reductase is a rate-limiting enzyme in the cholesterol biosynthesis, catalyzing the following reaction.
[^14C] HMG-CoA+2NADPH+2H^+→[^14C] mevanolate+CoA+2NADP^+ microsomes,
HMG-CoA as a substrate. The reaction was carried out in the presence of 100 mM KH2PO4, 20 mM G-6-P, 2.5 mM NADPH, 10 mM EDTA, 5 mM DTT and […] G-6-P dehydrogenase, at 37° C. for 15 minutes and quantitating [^14C] mevalonate as an end product.

Row | Molecule | pIC50
1 | (3R,5R)-7-[2-(4-Fluorophenyl)-5-isopropyl-3-phenyl-4-[(pyridin-2-yl-amino)carbonyl]pyrrol-1-yl]-3,5-dihydroxy-1-heptanoic acid calcium salt [Compound No. 5] | 10.71
2 | (3R,5R)-7-[2-(4-Fluorophenyl)-5-isopropyl-3-(2,4-difluorophenyl)-4-[(phenylamino)carbonyl]-1H-pyrrol-3,5-dihydroxy-1-heptanoic acid calcium salt [Compound No. 15] | 10.91
3 | (3R,5R)-7-[2-(4-Fluorophenyl)-5-isopropyl-3-phenyl-4-[(3-fluorophen ylamino)carbonyl]-pyrrol-1-yl]-3,5-dihydroxy 1-heptanoic acid calcium salt [Compound No. 3] | 10.62
4 | (3R,5R)-7-[2,3-Di-(4-fluorophenyl)-5-isopropyl-4-[(phenylamino) carbonyl]-pyrrol-1-yl]-3,5-dihydroxy-1-heptanoic acid calcium salt [Compound No. 16] | 10.46
5 | CC(C)c1c(C(=O)Nc2ccccc2)c(-c2ccccc2)c(-c2ccc(F)c(F)c2)n1CC[C@@H](O)C[C@@H](O)CC(=O)O [Compound No. 13, (3R,5R)-7-[2-(3,4-Difluorophenyl)-5-isopropyl-3-phenyl-4-[(phenylamino)carbonyl]-pyrrol-1-yl]-3,5-dihydroxy-1-heptanoic acid calcium salt] | 11.20
6 | (3R,5R)-7-[2-(4-Fluorophenyl)-5-isopropyl-3-phenyl-4-[(4-fluorophenylamino)carbonyl]-pyrrol-1-yl]-3,5-dihydroxy-1-heptanoic acid calcium salt [Compound No. 4] | 11.01
7 | CC(C)c1c(C(=O)Nc2ccccc2F)c(-c2ccccc2)c(-c2ccc(F)cc2)n1CC[C@@H](O)C[C@@H](O)CC(=O)O [Compound No. 2, (3R,5R)-7-[2-(4-Fluorophenyl)-5-isopropyl-3-phenyl-4-[(2-fluorophenylamino)carbonyl]-pyrrol-1-yl]-3,5-dihydroxy-1-heptanoic acid calcium salt] | 10.75
8 | CC(C)c1c(C(=O)Nc2ccccc2)c(-c2ccccc2)c(-c2ccc(F)cc2F)n1CC[C@@H](O)C[C@@H](O)CC(=O)O [Compound No. 12, (3R,5R)-7-[2-(2,4-Difluorophenyl)-5-isopropyl-3-phenyl-4-[(phenylamino)carbonyl]-pyrrol-1-yl]-3,5-dihydroxy-1-heptanoic acid calcium salt] | 10.91

Results, then the molecule that gave them:

Row | pIC50 | Molecule
9 | 10.90 | CC(C)c1c(C(=O)Nc2ccccc2)c(-c2ccc(C(F)(F)F)cc2)c(-c2ccc(F)cc2)n1CC[C@@H](O)C[C@@H](O)CC(=O)O [Compound No. 18, (3R,5R)-7-[2-(4-Fluorophenyl)-5-isopropyl-3-(4-trifluoromethylphenyl)-4-[(phenylamino)carbonyl]-pyrrol-1-yl]-3,5-dihydroxy-1-heptanoic acid calcium salt]
10 | 10.41 | CC(C)c1nc(N(C)S(C)(=O)=O)nc(-c2ccc(F)cc2)c1/C=C/[C@@H](O)C[C@@H](O)CC(=O)O [Rosuvastatin, reference compound]
11 | 10.47 | Cc1ccc(-c2c(C(=O)Nc3ccccc3)c(C(C)C)n(CC[C@@H](O)C[C@@H](O)CC(=O)O)c2-c2ccc(F)cc2)cc1 [Compound No. 17, (3R,5R)-7-[2-(4-Fluorophenyl)-5-isopropyl-3-(4-methylphenyl)-4-[(phenylamino)carbonyl]-pyrrol-1-yl]-3,5-dihydroxy-1-heptanoic acid calcium salt]
12 | 10.91 | O=C(O)C[C@H](O)C[C@H](O)CCn1c(-c2ccc(F)cc2)c(-c2ccccc2)c(C(=O)Nc2ccccc2)c1C1CC1 [Compound No. 19, (3R,5R)-7-[2-(4-Fluorophenyl)-5-cyclopropyl-3-phenyl-4-[(phenylamino)carbonyl]-pyrrol-1-yl]-3,5-dihydroxy-1-heptanoic acid calcium salt]

Source: patent US20040102511A1, “Substituted pyrrole derivatives” (priority 2002, published 2004)
